Measurements from patent US5075440A, “Novel pyrido[2,3-f](1,4)thiazepines and pyrido[3,2-b](1,5)benzothiazepines” (Ortho Pharmaceutical Corporation, priority 1990, dated 1991).
“And” between values parts separate entries of the source, which are not always exact repeats. Identical values can stand only once.

What was measured:
aorta tissue = assay: Inhibition of calcium dependent smooth muscle contraction, aorta (P#176 Aorta); set-up: species or system dog; details: 50 mM KCl contraction
Procedure: (§1) The test for inhibition of calcium dependent smooth muscle contraction is determined according to the following procedure:
(§2) The trachea and the aorta from dogs sacrificed by excess KCl injection are stored overnight at 4° C. in oxygenated Krebs-Henseleit buffer. Tracheal rings, one cartilage segment wide (5-10 mm), are cut starting from the bronchial end. Rings of aorta tissue of the same width are also prepared. After cutting the cartilage, the trachealis muscle tissue and the aorta tissue are suspended in oxygenated Krebs-Henseleit buffer at 37° C. in a 25 ml tissue bath. After a 60-minute equilibration period, the tissues are challenged with 10 μM carbachol. After 5 minutes, the tissues are rinsed and allowed to rest 50 minutes. The tissues are then challenged with 50 mM KCl and, after 30 minutes, the contractions are quantitated. The tissues are then rinsed and reequilibrated for 50 minutes. Test compounds are then added for 10 minutes, and the tissue is rechallenged with 50 mM KCl. After 30 minutes, the contraction is recorded and used to determine the % inhibition of control.
(§3) The percent inhibition of smooth muscle contraction is calculated from response data before and after drug treatment. [formula]

trachealis muscle tissue = assay: Inhibition of calcium dependent smooth muscle contraction, trachea (P#176 Trach); set-up: species or system dog; details: 50 mM KCl contraction
Procedure: as §1, §2, §3

[1] = Canis lupus familiaris, 0.01 μM, read-out: P#176 Aorta % INHB/μM
[2] = Canis lupus familiaris, 0.1 μM, read-out: P#176 Aorta % INHB/μM
[3] = Canis lupus familiaris, 1.0 μM, read-out: P#176 Aorta % INHB/μM
[4] = Canis lupus familiaris, read-out: P#176 Trach % INHB/μM
[5] = Canis lupus familiaris, 2.0 μM, read-out: P#176 Trach % INHB/μM
[6] = Canis lupus familiaris, 0.1 μM, read-out: P#176 Trach % INHB/μM
[7] = Canis lupus familiaris, read-out: P#176 Aorta % INHB/μM

| Structure (SMILES) | inhibition at 0.01 µM (aorta tissue; [1]) | inhibition at 0.1 µM (aorta tissue; [2]) | inhibition at 1 µM (aorta tissue; [3]) | inhibition at 0.3 µM (trachealis muscle tissue; [4]) | inhibition at 2 µM (trachealis muscle tissue; [5]) | further results |
| --- | --- | --- | --- | --- | --- | --- |
| CC(=O)OCCOC(=O)C1=C(C)NC2=C(C1c1cccc(Cl)c1Cl)S(=O)(=O)CCN(C)C2 (centres unmarked) [2,3-dichloro / Me / 2-acetoxyethyl, 2-Acetoxyethyl 9-(2,3-dichlorophenyl)-4,7-dimethyl-1,1-dioxo-2,3,4,5,6,9-hexahydropyrido[2,3-f][1,4]-thiazepine-8-carboxylate] | 0% | 26% | 89% |  |  |  |
| CCOC(=O)C1=C(C)NC2=C(C1c1cccc(Cl)c1Cl)S(=O)(=O)CCN(C(=O)CN)C2 (centres unmarked) [2,3-dichloro / NH2 CH2 CO / ethyl] |  |  | 20% | 6% | 36% |  |
| CCOC(=O)C1=C(C)NC2=C(C1c1ccccc1[N+](=O)[O-])S(=O)(=O)CCNC2 (centres unmarked) [2-nitro / H / ethyl] | 27% | 47% | 77% | 45% | 75% | inhibition at 0.1 µM (trachealis muscle tissue; [6]): 12% |
| CC1=C(C(=O)OCCO)C(c2cccc(Cl)c2Cl)C2=C(CNCCS2(=O)=O)N1 (centres unmarked) [2,3-dichloro / H / 2-hydroxyethyl] |  |  | 0% |  |  | inhibition at 10 µM (aorta tissue; [7]): 56% |
| CCOC(=O)C1=C(C)NC2=C(C1c1cccc(Cl)c1Cl)S(=O)(=O)CCNC2 (single isomer, unassigned) [2,3-dichloro / H / ethyl, Ethyl 9-(2,3-dichlorophenyl)-1,1-dioxo-2,3,4,5,6,9-hexahydro-7-methylpyrido[2,3-f][1,4]-thiazepine-8-carboxylate] |  |  |  | 24% |  | inhibition at 0.03 µM (trachealis muscle tissue; [4]): 25% |
| CC(=O)OCCOC(=O)C1=C(C)NC2=C(C1c1cccc(Cl)c1Cl)S(=O)(=O)CCNC2 (centres unmarked) [2,3-dichloro / H / 2-acetoxyethyl, 2-Acetoxyethyl 9-(2,3-Dichlorophenyl) -1,1-dioxo-2,3,4,5,6,9-hexahydro-7-methylpyrido [2,3-f][1,4]thiazepine-8-carboxylate] |  | 18% | 72% |  |  | inhibition at 0.3 µM (aorta tissue; Canis lupus familiaris, 0.3 μM, read-out: P#176 Aorta % INHB/μM): 62% |
| CCOC(=O)C1=C(C)NC2=C(C1c1cccc([N+](=O)[O-])c1)S(=O)(=O)CCN(CC)C2 (centres unmarked) [3-nitro / Et / ethyl, Ethyl 1,1-dioxo-4-ethyl-2,3,4,5,6,9-hexahydro-7-methyl-9-(3-nitrophenyl)-pyrido[2,3-f][1,4]-thiazepine-8-carboxylate] | 5% | 73% |  | 92% |  | inhibition at 0.03 µM (trachealis muscle tissue; [4]): 50%; inhibition at 0.1 µM (trachealis muscle tissue; [6]): 73% |
| CCOC(=O)C1=C(C)NC2=C(C1c1cccc(Cl)c1Cl)S(=O)(=O)CCNC2 (single isomer, unassigned) [2,3-dichloro / H / ethyl] [Ethyl 9-(2,3-dichlorophenyl)-1,1-dioxo-2,3,4,5,6,9-hexahydro-7-methylpyrido[2,3-f][1,4]-thiazepine-8-carboxylate] |  |  |  |  |  | P#176 Aorta % INHB/μM (aorta tissue; 0.01 μM): 0% and 14%; P#176 Aorta % INHB/μM (aorta tissue; 0.1 μM): 0% and 67%; P#176 Aorta % INHB/μM (aorta tissue; 1.0 μM): 69% and 97%; P#176 Trach % INHB/μM (trachealis muscle tissue; 0.1 μM): 2% and 47%; P#176 Trach % INHB/μM (trachealis muscle tissue; 2.0 μM): 54% and 96% |
| CCCCCCCN1CCS(=O)(=O)C2=C(C1)NC(C)=C(C(=O)OCC)C2c1cccc(Cl)c1Cl (centres unmarked) [2,3-dichloro / hept / ethyl] |  | 4% |  |  | 27% |  |
| CCOC(=O)C1=C(C)NC2=C(C1c1cccc(Cl)c1Cl)S(=O)(=O)c1ccccc1N(C=O)C2 (centres unmarked) [2,3-dichloro / CHO / ethyl, Ethyl 4-(2,3-dichlorophenyl)-5,5-dioxo-10-formyl-2-methyl-1,4,10,11-tetrahydropyrido[3,2-b][1,5]-benzothiazepine-3-carboxylate] | 33% | 50% | 74% | 35% | 73% | inhibition at 0.01 µM (trachealis muscle tissue; Canis lupus familiaris, 0.01 μM, read-out: P#176 Trach % INHB/μM): 38% |
| CC1=C(C(=O)OCCO)C(c2cccc(Cl)c2Cl)C2=C(CN(C)CCS2(=O)=O)N1 (centres unmarked) [2,3-dichloro / Me / 2-hydroxyethyl] |  | 14% | 62% |  |  | inhibition at 3 µM (aorta tissue; Canis lupus familiaris, 3.0 μM, read-out: P#176 Aorta % INHB/μM): 77%; inhibition at 10 µM (aorta tissue; [7]): 95% |
